Patent publication US8278295B2, “Amino-heterocyclic compounds” (Pfizer Inc., priority 2009, dated 2012)

Biological target: human recombinant PDE9 enzyme (Homo sapiens, UniProt O76083)
Test: PDE9 IC50, 96-well assay (Phosphodiesterase SPA)
Format: biochemical

human recombinant PDE9 enzyme, sequence (O76083 whole entry): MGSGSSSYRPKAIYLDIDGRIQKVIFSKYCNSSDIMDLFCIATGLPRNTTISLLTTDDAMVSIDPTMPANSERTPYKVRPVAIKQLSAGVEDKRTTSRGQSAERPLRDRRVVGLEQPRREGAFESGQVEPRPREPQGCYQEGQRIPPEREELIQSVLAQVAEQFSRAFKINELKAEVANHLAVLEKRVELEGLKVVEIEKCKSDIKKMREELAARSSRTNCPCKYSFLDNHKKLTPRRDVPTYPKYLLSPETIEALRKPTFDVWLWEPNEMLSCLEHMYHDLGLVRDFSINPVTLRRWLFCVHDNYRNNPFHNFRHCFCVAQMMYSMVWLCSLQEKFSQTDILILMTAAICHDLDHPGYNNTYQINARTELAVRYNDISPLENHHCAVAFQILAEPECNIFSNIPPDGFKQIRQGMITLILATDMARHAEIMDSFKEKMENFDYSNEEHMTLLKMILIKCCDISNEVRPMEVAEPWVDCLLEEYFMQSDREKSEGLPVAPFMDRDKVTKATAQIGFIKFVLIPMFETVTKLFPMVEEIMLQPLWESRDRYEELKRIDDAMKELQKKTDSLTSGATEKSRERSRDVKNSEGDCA

- IC50: 9.49 nM
SMILES: C[C@H](c1nc2c(cnn2C2CCCC2)c(=O)[nH]1)N1CC(Oc2ncccn2)C1 [Example 13, 1-Cyclopentyl-6-{(1R)-1-[3-(pyrimidin-2-yloxy)azetidin-1-yl]ethyl}-1,5-dihydro-4H-pyrazolo[3,4-d]pyrimidin-4-one]
